Active and inactive are the calls of the source.
Legend:
[1] = cells; assay type: functional, cell-based
[2] = target: T1, Trace amine-associated receptor 1 (Homo sapiens, UniProt Q96RJ0); experiment: Counterscreen for agonists of the human trace amine associated receptor 1 (hTAAR1): Fluorescence-based cell-based high throughput dose response assay to identify hTAAR1 agonist that also desensitize TAAR1 receptor response.; assay type: functional
T1 sequence (Q96RJ0 whole entry): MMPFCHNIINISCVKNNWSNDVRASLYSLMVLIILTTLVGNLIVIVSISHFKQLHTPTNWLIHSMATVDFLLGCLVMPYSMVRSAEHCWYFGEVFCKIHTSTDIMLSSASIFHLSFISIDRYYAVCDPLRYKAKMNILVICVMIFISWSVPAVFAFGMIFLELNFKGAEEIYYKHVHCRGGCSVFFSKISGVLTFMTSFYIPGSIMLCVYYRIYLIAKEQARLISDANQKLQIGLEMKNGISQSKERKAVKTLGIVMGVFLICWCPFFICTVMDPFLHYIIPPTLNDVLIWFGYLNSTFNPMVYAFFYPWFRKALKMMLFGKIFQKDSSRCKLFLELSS

[3] = cells; assay type: functional, cell-based; remark: listed apart in the source
[4] = target: T1, Trace amine-associated receptor 1; experiment: Fluorescence-based cell-based high throughput dose response assay to identify agonists of the human trace amine associated receptor 1 (TAAR1).; assay type: functional
[5] = Trypanosoma cruzi growth suppression in host cells – NIH3T3 host cells, beta-gal luminescence, confirmation (AID 2044); assay type: functional, cell-based;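 further: intracellular parasites grown in NIH/3T3 mouse fibroblasts as host cells; luminescent beta-galactosidase reporter signal from transgenic T. cruzi replicating inside host cells; inhibitors lower the luminescence signal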
[6] = NIH3T3 cell viability loss – ATP luminescence, mouse fibroblasts, counter-screen, dose response (AID 2010); assay type: functional, cell-based;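 further: cells exposed to compound for about 90 hours before reading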
[7] = target: Albumin (Bos taurus, UniProt P02769); experiment: Counterscreen for inhibitors of T-cell receptor (TCR)-CD3 interaction: Fluorescence-based biochemical high throughput dose response assay to identify inhibitors of T-cell receptor (TCR)-CD3 interaction using a TAMRA-labeled BSA probe.; assay type: functional
Chain of Albumin (P02769 whole entry): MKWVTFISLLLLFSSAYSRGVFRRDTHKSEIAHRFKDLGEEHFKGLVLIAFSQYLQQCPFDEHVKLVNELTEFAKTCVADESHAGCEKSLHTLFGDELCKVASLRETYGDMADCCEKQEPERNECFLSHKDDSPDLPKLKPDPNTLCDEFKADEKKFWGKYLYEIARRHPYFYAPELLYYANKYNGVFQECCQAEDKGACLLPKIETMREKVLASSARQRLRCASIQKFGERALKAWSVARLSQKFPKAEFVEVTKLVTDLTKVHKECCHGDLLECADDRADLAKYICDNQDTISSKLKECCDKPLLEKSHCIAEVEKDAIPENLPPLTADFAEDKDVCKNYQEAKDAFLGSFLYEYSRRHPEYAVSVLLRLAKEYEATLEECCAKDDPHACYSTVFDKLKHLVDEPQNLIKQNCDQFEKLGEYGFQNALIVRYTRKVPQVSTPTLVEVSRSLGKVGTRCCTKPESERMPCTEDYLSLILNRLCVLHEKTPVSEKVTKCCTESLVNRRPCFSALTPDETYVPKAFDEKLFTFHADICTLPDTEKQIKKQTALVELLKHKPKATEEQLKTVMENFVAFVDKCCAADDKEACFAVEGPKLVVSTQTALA

[8] = target: Protein Wnt-3a (Mus musculus, UniProt P27467); experiment: SAR analysis of small molecule antagonists of Gli-SUFU in a Wnt3a luminescent reporter assay.; assay type: functional
Chain of Protein Wnt-3a (P27467 whole entry): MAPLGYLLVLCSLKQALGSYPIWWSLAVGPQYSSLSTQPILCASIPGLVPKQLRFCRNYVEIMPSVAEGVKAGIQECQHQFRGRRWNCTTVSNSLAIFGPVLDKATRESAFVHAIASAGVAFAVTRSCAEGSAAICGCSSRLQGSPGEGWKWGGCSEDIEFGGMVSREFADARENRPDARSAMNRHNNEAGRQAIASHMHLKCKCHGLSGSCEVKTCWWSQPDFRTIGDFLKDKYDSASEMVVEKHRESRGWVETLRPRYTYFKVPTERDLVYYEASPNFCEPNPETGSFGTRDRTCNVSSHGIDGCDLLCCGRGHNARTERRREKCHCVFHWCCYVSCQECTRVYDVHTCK

[9] = nonselective StAR promoter luciferase inhibitors – cell-based, luminescence, luciferase reporter, counter-screen for LRH-1 inverse agonist project, dose response (AID 651969); assay type: functional
[10] = target: Steroidogenic factor 1 (Homo sapiens, UniProt Q13285); experiment: Counterscreen for inverse agonists of the liver receptor homolog-1 (LRH-1; NR5A2): Luminescence-based cell-based high throughput dose response assay to identify inverse agonists of the Steroidogenic Factor 1 Nuclear Receptor (SF1; NR5A1).; assay type: functional
Chain of Steroidogenic factor 1 (Q13285 whole entry): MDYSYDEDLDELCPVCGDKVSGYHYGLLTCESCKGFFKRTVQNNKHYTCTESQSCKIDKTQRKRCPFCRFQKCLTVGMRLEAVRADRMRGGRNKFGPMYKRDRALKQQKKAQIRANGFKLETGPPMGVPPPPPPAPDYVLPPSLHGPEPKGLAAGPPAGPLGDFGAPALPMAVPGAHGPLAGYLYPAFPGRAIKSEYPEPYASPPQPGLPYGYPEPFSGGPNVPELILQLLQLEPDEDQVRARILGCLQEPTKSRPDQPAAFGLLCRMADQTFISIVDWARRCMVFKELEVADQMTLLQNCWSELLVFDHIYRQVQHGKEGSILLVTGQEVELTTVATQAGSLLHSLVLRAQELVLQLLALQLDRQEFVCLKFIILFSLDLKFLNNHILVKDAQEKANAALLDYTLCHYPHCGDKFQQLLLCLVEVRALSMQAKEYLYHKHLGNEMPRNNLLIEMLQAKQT

[11] = target: Nuclear receptor subfamily 5 group A member 2 (Homo sapiens, UniProt O00482); assay type: functional, cell-based;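 further: HEK293T cells transfected with LRH-1 and a StAR promoter luciferase reporter; potency for inhibitors that lower LRH-1 driven reporter light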
Chain of Nuclear receptor subfamily 5 group A member 2 (O00482 whole entry): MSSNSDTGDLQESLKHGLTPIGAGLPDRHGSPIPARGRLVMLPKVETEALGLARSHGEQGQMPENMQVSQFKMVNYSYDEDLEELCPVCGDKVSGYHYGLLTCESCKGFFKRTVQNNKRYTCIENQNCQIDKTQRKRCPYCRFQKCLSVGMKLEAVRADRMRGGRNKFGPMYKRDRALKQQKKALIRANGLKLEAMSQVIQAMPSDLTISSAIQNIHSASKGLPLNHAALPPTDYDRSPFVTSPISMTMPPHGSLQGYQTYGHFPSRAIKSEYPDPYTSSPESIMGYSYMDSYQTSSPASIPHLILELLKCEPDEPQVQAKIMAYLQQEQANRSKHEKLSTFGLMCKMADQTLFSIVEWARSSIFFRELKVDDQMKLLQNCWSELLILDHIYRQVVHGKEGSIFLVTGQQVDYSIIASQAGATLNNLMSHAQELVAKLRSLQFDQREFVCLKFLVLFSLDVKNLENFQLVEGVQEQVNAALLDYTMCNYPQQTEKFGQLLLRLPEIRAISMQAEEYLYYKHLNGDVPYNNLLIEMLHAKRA

[12] = viability loss in HeLa cells – cytotoxicity control for MgcRacGAP inhibitor project, dose response (AID 624300); assay type: functional
[13] = target: Large T antigen (Simian virus 40, UniProt P03070); assay type: functional, Betapolyomavirus macacae;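 further: Confirmatory-stage PubChem screen for compounds that inhibit SV40 T antigen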
Chain of Large T antigen (P03070 whole entry): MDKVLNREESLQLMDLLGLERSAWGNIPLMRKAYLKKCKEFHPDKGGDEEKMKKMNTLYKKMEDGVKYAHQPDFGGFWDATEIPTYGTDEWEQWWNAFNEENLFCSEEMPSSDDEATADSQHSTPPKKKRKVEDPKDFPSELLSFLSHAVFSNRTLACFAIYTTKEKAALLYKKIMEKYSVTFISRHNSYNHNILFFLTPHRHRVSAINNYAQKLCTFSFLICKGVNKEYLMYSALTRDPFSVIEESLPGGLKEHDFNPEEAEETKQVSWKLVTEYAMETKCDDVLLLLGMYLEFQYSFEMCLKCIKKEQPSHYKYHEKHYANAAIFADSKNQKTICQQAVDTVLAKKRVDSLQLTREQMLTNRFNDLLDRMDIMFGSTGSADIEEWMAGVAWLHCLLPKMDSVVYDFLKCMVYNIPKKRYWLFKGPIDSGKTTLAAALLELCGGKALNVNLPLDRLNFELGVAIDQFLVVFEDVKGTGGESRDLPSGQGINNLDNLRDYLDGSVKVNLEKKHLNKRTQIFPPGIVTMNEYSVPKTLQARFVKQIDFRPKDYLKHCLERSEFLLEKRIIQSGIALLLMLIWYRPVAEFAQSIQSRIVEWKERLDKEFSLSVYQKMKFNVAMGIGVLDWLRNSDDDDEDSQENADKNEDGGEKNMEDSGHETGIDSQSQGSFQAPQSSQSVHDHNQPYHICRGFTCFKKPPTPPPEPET

[14] = target: T2, Rac GTPase-activating protein 1 (Homo sapiens, UniProt Q9H0H5); experiment: blockers of MgcRacGAP-driven Rac1 GTP hydrolysis – biochemical, ADP Hunter fluorescence, primary and confirmatory, confirmation (AID 624330); assay type: functional
T2 sequence (Q9H0H5 whole entry): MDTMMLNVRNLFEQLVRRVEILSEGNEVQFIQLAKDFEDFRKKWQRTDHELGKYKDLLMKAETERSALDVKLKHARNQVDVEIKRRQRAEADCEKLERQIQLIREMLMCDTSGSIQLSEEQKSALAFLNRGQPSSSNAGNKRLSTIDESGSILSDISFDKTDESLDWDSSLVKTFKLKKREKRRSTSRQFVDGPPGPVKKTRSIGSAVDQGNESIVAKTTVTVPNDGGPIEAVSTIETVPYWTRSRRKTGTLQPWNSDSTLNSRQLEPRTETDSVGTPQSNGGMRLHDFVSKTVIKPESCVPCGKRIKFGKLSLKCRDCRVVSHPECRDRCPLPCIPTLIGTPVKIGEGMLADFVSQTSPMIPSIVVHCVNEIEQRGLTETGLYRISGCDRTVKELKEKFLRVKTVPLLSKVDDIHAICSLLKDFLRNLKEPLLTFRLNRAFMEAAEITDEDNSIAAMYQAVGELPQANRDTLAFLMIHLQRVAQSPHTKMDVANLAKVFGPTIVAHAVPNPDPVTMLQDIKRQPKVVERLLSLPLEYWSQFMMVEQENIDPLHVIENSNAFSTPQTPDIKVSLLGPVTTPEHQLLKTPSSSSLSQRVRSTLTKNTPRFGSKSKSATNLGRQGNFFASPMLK

[15] = system: SN12K1; experiment: cells; assay type: functional; conditions: Homo sapiens
[16] = system: P388; experiment: cells; assay type: functional; conditions: Mus musculus
[17] = system: P388/ADR; experiment: cells; assay type: functional; conditions: Mus musculus
[18] = target: Photoreceptor-specific nuclear receptor (Homo sapiens, UniProt Q9Y5X4); assay type: functional, cell-based;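 further: CHO-S cells with Gal4-NCOR and VP16-NR2E3 two-hybrid luciferase reporter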
Chain of Photoreceptor-specific nuclear receptor (Q9Y5X4 whole entry, the tested form may be a part): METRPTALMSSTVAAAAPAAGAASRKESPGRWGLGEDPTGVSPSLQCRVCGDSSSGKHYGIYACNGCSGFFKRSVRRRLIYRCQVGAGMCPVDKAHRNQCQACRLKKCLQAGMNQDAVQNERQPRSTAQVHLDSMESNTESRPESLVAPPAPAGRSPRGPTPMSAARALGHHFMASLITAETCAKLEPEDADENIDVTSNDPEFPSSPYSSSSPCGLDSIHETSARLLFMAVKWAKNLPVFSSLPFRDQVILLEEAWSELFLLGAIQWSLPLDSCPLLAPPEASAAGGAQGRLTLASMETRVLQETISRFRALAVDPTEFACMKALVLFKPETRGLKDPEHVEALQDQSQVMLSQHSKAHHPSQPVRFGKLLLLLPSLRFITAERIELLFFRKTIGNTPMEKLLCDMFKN

[19] = target: T3, DNA repair protein RAD52 homolog (Homo sapiens, UniProt P43351); assay type: functional, biochemical
T3 sequence (P43351 whole entry): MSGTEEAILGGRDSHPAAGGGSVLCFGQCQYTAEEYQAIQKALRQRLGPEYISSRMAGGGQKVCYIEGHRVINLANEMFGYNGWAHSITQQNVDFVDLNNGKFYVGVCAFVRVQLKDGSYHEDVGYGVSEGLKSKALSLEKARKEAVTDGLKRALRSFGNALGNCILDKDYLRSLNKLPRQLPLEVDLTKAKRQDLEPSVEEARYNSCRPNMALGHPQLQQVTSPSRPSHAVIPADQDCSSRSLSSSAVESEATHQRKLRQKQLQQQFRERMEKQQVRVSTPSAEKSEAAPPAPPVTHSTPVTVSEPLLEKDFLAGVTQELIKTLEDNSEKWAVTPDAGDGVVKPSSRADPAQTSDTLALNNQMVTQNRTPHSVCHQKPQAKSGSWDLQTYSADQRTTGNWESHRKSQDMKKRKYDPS

[20] = target: T4, Interleukin-8 (Homo sapiens, UniProt P10145); experiment: Dose Response confirmation of uHTS small molecule hits for cystic fibrosis induced NFkb Inhibitors in a PAF-induced IL8 counterscreen.; assay type: functional; conditions: read-out: IC50_Mean
T4 sequence (P10145 whole entry): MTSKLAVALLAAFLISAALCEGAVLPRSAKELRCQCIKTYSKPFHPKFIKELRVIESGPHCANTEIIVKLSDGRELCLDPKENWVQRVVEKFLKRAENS

[21] = target: Cytochrome P450 2C9 (Homo sapiens, UniProt P11712)
Chain of Cytochrome P450 2C9 (P11712 whole entry): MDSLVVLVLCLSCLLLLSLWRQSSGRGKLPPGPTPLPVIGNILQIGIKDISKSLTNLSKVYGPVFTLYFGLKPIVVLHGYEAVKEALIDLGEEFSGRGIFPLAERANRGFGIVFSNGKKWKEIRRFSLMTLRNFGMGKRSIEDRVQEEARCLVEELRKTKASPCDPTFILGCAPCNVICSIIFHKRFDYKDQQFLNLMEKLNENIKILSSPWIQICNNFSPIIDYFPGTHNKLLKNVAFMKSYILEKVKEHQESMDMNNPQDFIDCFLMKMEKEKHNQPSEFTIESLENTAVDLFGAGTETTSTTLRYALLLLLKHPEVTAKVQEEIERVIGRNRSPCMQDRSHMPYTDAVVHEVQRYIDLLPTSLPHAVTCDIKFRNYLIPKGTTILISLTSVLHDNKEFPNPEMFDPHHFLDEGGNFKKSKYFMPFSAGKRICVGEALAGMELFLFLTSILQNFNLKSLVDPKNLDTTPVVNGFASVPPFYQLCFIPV

[22] = target: T5, Mitochondrial peptide methionine sulfoxide reductase (Bos taurus, UniProt P54149); assay type: functional;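 further: absorbance read-out, biochemical high-throughput dose-response screen for MsrA inhibitors, confirmatory; recombinant bovine MsrA coupled to E. coli TrxB with NADPH and selenocystamine; potency is for inhibitors of MsrA activity on DMSO substrate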
T5 sequence (P54149 whole entry): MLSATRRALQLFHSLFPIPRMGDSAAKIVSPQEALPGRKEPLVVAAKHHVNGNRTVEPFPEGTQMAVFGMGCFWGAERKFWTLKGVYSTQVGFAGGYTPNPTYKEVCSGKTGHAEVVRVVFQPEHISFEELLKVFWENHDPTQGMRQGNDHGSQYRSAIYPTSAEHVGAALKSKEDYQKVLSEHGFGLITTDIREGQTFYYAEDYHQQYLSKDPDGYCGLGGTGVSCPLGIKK

[23] = target: T6, Tyrosyl-DNA phosphodiesterase 2 (Homo sapiens, UniProt O95551); experiment: potency against TDP2 phosphodiesterase activity – biochemical, epi absorbance, IC50, dose response (AID 743297)
T6 sequence (O95551 whole entry): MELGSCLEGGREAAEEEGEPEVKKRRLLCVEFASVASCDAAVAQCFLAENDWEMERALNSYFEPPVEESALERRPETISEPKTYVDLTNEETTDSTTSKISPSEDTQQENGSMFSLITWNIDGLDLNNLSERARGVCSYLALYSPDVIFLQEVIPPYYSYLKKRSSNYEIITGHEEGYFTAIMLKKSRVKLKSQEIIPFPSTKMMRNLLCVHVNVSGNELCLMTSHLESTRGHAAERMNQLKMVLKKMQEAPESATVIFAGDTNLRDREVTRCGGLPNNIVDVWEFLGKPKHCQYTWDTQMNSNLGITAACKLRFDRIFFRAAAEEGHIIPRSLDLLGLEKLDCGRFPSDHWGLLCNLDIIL

[24] = target: Genome polyprotein (dengue virus type 2, UniProt P29990); experiment: flavivirus cap methylation enzyme inhibition – biochemical, confirmation dose response, primary screen (AID 588689); assay type: functional
Chain of Genome polyprotein (P29990 2492-3391 limits assumed): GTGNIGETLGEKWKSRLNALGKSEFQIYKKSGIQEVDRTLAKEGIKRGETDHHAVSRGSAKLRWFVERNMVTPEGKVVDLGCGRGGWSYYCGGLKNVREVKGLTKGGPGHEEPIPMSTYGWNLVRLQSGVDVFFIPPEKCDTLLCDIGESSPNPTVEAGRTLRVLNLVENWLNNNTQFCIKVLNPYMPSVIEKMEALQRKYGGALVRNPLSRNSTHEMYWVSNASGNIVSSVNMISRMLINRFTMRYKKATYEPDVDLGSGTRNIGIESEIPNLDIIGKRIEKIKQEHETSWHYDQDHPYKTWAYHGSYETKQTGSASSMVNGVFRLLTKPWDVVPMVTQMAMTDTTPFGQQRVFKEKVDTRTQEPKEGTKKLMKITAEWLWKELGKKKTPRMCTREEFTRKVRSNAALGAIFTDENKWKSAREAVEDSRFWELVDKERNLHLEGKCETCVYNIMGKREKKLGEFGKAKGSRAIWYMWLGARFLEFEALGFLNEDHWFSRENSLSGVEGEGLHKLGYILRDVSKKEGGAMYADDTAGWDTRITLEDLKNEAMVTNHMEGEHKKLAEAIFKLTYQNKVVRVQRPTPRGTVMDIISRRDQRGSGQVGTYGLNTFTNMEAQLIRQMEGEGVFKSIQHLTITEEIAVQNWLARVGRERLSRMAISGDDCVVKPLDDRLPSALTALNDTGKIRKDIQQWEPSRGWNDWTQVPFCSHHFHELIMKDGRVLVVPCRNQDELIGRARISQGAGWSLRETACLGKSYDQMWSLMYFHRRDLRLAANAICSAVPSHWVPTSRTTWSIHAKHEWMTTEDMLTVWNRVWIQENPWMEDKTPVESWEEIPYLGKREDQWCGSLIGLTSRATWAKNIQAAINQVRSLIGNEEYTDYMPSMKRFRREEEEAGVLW

[25] = off-target signal loss in HeLa-CEM21 co-culture – HeLa F-luc CTL cells, cherry-picked, counter-screen for HIV-1 Env fusion inhibitor project, dose response (AID 652040); assay type: functional, cell-based;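 further: potency for signal decrease marking cytotoxic or nonspecific inhibition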
[26] = HIV-1 AD8 envelope cell-cell fusion blockers – cherry-pick, dose response (AID 652062); assay type: functional, cell-based;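 further: luciferase signal from cell-cell fusion driven by HIV-1 clade B AD8 Env; potency is for inhibitors of fusion seen as a drop in luminescence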
[27] = blockers of HIV-1 envelope-mediated cell-cell fusion – cherry-pick, dose response (AID 652057); assay type: functional, cell-based
[28] = blockers of HIV-1 ZM109 envelope-driven cell-cell fusion – HeLa effector, CEM target cells, luciferase, cherry-pick, dose response (AID 652058); assay type: functional, cell-based;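 further: luciferase signal from HIV-1 Env mediated cell-cell fusion of effector and target cells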
[29] = viability loss in CEM21 cells – cell-based, CellTiter-Glo luminescence, cherry-picked, cytotoxicity control for viral fusion inhibitor project, dose response (AID 652042); assay type: functional;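 further: potency for signal decrease meaning cytotoxicity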
[30] = target: Nonstructural protein 1 (Influenza A virus, UniProt Q194T2); assay type: functional, Influenza A virus (A/California/07/2009(H1N1))
Chain of Nonstructural protein 1 (Q194T2 whole entry): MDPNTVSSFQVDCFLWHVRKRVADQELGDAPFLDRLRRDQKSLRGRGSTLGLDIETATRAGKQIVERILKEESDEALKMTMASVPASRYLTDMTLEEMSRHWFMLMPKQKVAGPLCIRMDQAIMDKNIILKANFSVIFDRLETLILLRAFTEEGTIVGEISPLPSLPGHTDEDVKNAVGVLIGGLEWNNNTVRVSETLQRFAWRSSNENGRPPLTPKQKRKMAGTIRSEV

[31] = THP-1 cell cytotoxicity, dose response, cytotoxicity control for non-replicating M. tuberculosis project (AID 489025); assay type: functional

COc1cc(CN2CCc3ccccc3C2)cc([N+](=O)[O-])c1O
IC50 [1]: > 29.9 µM (inactive)
IC50 [2]: 6.77 µM (active)
EC50 [3]: > 29.9 µM (inactive)
EC50 [4]: 1.01 µM (active)

CCOc1ccc(/C=N/CC(O)c2ccccc2)cc1 (stereo not given)
IC50 [1]: > 29.9 µM (inactive)
IC50 [2]: 3.27 µM (active)
EC50 [3]: > 29.9 µM (inactive)
EC50 [4]: 0.769 µM (active)

CC1CCN(S(=O)(=O)c2ccc(NC(=O)Cn3nnc(-c4ccccc4F)n3)cc2)CC1
EC50 [5]: 2.23 µM (active)
EC50 [6]: > 60 µM (not active)
IC50 [7]: > 94.1 µM (inactive)

Cc1nc(NC(=O)c2ccccc2)cc(N2CCCCC2)n1
IC50 [8]: > 21.8 µM (inactive)

O=C(Nc1cc(N2CCSCC2)ncn1)c1ccccc1
IC50 [8]: > 21.8 µM (inactive)

O=C(Cc1ccc(S(=O)(=O)N2CCCC2)s1)Nc1cccc([N+](=O)[O-])c1
IC50 [9]: 35.9 µM (inactive)
IC50 [10]: 6.79 µM (active)
IC50 [11]: 13 µM (inactive)

COc1cc(/C=C2\SC(=N)NC2=O)ccc1O
CC50 [12]: 69.1 µM (active)
IC50 [13]: 5.02 µM (active)
IC50 [14]: 11.8 µM (active)

O=C(Nc1cc(N2CCOCC2)ncn1)c1ccccc1
IC50 [8]: > 21.8 µM (inactive)

COc1cc2c(oc(=O)c3cc(C)cc(OC)c32)c2c(C3OC(C)C(O)C(C)(O)C3O)ccc(O)c12 (stereo not given)
GI50 [15]: 0.349 µM (active)
GI50 [16]: 0.171 µM (active)
GI50 [17]: 0.219 µM (active)
IC50 [18]: 12.7 µM (inactive)
AC50 [19]: 18.8 µM (active)

CC(Oc1ccc(S(=O)(=O)N2CCCC2)cc1[N+](=O)[O-])C(=O)NC(C)c1ccccc1 (stereo not given)
IC50 [9]: 20.1 µM (inactive)
IC50 [10]: 7.26 µM (active)
IC50 [11]: 11.8 µM (inactive)

NC(=S)N1OC[C@@H]2COc3ccc4ccccc4c3[C@@H]21
IC50 [20]: 8.34 µM (active)

COc1ccc(C(=O)NNC(=O)CSc2nnc(COc3ccc4ccccc4c3)n2C)cc1
IC50 [1]: > 29.9 µM (inactive)
IC50 [2]: > 29.9 µM (inactive)
EC50 [3]: > 29.9 µM (inactive)
EC50 [4]: > 29.9 µM (inactive)
AC50 [21]: inconclusive

O=C(O)c1ccc(NC2=C/C(=N/S(=O)(=O)c3cccs3)c3ccccc3C2=O)cc1
IC50 [22]: 4.82 µM (active)
IC50 [23]: 0.817 µM (active)
IC50 [24]: 58.1 µM (active)

CC(=O)Nc1ccc(Nc2cc([N+](=O)[O-])cc(Cl)[n+]2[O-])cc1
IC50 [9]: 35.9 µM (inactive)
IC50 [10]: 1.56 µM (active)
IC50 [11]: 5.74 µM (active)

CN(C)C(=O)c1cccc(-c2cnc3sc(NCc4ccc5c(c4)OCO5)nn23)c1
AC50 [25]: 3.03 µM (active)
IC50 [20]: 11.8 µM (inactive)
AC50 [26]: 4.18 µM (active)
AC50 [27]: 4.47 µM (active)
AC50 [28]: 4.54 µM (active)
AC50 [29]: 66.1 µM (active)

O=C(N/N=C/c1cccc([N+](=O)[O-])c1O)c1cccs1
IC50 [30]: 7.41 µM (active)
CC50 [31]: 32.4 µM (active)
IC50 [7]: > 94.1 µM (inactive)

COC(=O)Nc1ccc(S(=O)(=O)NNC(=O)c2c(O)c3ccccc3[nH]c2=O)cc1
IC50 [7]: > 94.1 µM (inactive)
